According to patent US10023543B2 (CELGENE QUANTICEL RESEARCH, INC., priority 2014, dated 2018):

Assays:
[1] = system: Kasumi-1; test: Kasumi-1 AML cell line proliferation assay (Cell-MTS assay); assay type: cell-based; conditions: Homo sapiens, 168 hours
Text: Colorimetric cellular assay to assess the ability of LSD-1 small molecule inhibitors to effect the proliferation of the established AML cancer cell line Kasumi-1.
This Cell-MTS assay is a 7-day plate based colorimetric assay which quantifies the amount of newly generated NADH in the presence and absence of test compound. These NADH levels are used as a proxy for the quantification of cancer cell proliferation.
The established cancer cell line Kasumi-1 with a verified p53 mutation were purchased from American Type Culture Collection (ATCC) and routinely passaged according to ATCC published protocols. For routine assay these cells were seeded at a density of 20,000 cells per 96-well. […] At the end of this compound incubation period, 80 μl of media is removed and 20 μL of CellTiter 96® AQueous Non-Radioactive Cell Proliferation Assay solution (Promega) is added. The cells are incubated until the OD490 is >0.6. IC50 values are calculated using the IDBS XLfit software package and include background subtracted OD490 values and normalization to DMSO controls.

[2] = system: THP-1 (AML) cells; test: LSD1 CD11b cellular assay (flow cytometry); assay type: cell-based; conditions: Homo sapiens, THP-1, 96 h; CD11b expressing cells, 4 days; read-out: THP-1 IC50
[3] = molecular target: full-length human LSD1 (Homo sapiens (Human), UniProt O60341); test: In vitro enzyme inhibition assay LSD-1 (TR-FRET); assay type: biochemical; conditions: H3K4me1-biotin peptide
Description: This assay determines the ability of a test compound to inhibit LSD1 demethylase activity.
The enzymatic assay of LSD1 activity is based on Time Resolved-Fluorescence Resonance Energy Transfer (TR-FRET) detection.
Enzymatic reaction is terminated within 15 minutes if 0.5 LSD1 enzyme is used in the plate.
The ability of the compounds disclosed herein to inhibit LSD1 activity was quantified and the respective IC50 value was determined.

| SMILES | IC50 [1] [nM] | IC50 [2] [nM] | IC50 [3] [nM] |
| --- | --- | --- | --- |
| Cn1cc2cc(-c3c(-c4ccc(C#N)c(F)c4)nc(N4CCCNCC4)n(C)c3=O)ccc2n1 [Example 66, 4-[2-[1,4]diazepan-1-yl-1-methyl-5-(2-methyl-2H-indazol-5-yl)-6-oxo-1,6-dihydro-pyrimidin-4-yl]-2-fluoro-benzonitrile] | < 100 | < 100 | – |
| CN(C)C1CCN(c2nc(-c3ccc(C#N)c(F)c3)c(-c3ccc4nn(C)cc4c3)c(=O)n2C)CC1 [Example 71, 4-[2-(4-dimethylamino-piperidin-1-yl)-1-methyl-5-(2-methyl-2H-indazol-5-yl)-6-oxo-1,6-dihydro-pyrimidin-4-yl]-2-fluoro-benzonitrile] | < 100 | < 100 | – |
| Cn1c(N2CCC(N)CC2)nc(-c2ccc(C#N)c(F)c2)c(-c2ccc3[nH]ncc3c2)c1=O [Example 88, 4-[2-(4-aminopiperidin-1-yl)-5-(1H-indazol-5-yl)-1-methyl-6-oxopyrimidin-4-yl]-2-fluorobenzonitrile] | < 100 | < 100 | – |
| Cn1c(N2CCC(N)CC2)nc(-c2ccc(C#N)c(F)c2)c(-c2ccc(OCCO)cc2)c1=O [Example 96, 4-[2-(4-aminopiperidin-1-yl)-5-[4-(2-hydroxyethoxy)phenyl]-1-methyl-6-oxopyrimidin-4-yl]-2-fluorobenzonitrile] | – | < 100 | < 100 |
